{"source": "patent US9133183B2", "about": "“Imidazolidinones and analogs exhibiting anti-cancer and anti-proliferative activities” (Deciphera Pharmaceuticals, LLC, priority 2013, dated 2015)", "tested_on": "PC-3 M-luc cells", "experiment": "PC-3 peritibial implant model of cancer bone metastasis", "format": "in vivo, mouse", "conditions": "oral dose of 30 mg/kg twice daily; lesion score of 4 in vehicle-treated animals; scale 0-4", "from_the_text": "PC-3 Peritibial Implant Model of Cancer Bone Metastasis\nTo evaluate in vivo anti-cancer activity of compounds of formula I, the PC-3 M-luc peritibial injection model of bone invasiveness model was employed. Briefly, PC-3 M-luc cells were obtained from Xenogen Corporation (Caliper Life Sciences) and expanded using MEM media modified with L-Glutamine (Cell Gro® #10-045-CV) supplemented with 10% fetal bovine serum, 1% penicillin-streptomycin-glutamine, 1% non-essential amino acids, and 1% MEM vitamins in 5% CO2 atmosphere at 37° C. Six to 7 week old male nude mice (Crl:NU-Foxn1nu) were obtained from Charles River Laboratories. Test mice were implanted peritibially on Day 0 with 1×10^6 cells/mouse (0.1 ml) using an insulin syringe with a fixed 28-gauge needle. The needle was inserted at the ankle between the tibia and fibula until the bevel of the needle reached approximately half way between the knee and ankle. Treatments began on Day 0. Animals were dosed by oral gavage twice daily for the study duration. […]\nIsosurface volume renderings were used to delineate lesions in the hind limbs. […] Lesions in the right hind limb were scored with values of 0, 1, 2, 3, or 4 based on a qualitative assessment of lesion size as defined by: • 0: Normal Bone • 1: Minimal lesions. […]"}
{"smiles": "CCN1CCN(C(=O)Nc2ccc(Oc3ccnc(-c4cnn(C)c4)c3)c(C)n2)C1=O", "note": "[Example 42, 3-ethyl-N-(6-methyl-5-((2-(1-methyl-1H-pyrazol-4-yl)pyridin-4-yl)oxy)pyridin-2-yl)-2-oxoimidazolidine-1-carboxamide]", "values": [{"measurement": "lesion score", "result": 2}]}
